Test results from US10781181B2, “N-((het) arylmethyl)-heteroaryl-carboxamides compounds as plasma kallikrein inhibitors” (Kalvista Pharmaceuticals Limited, priority 2014, dated 2020).
pIC50: −log10 of the molar value.

Tests used:
[1] = Pharmacokinetics following a single oral dose in rats; assay type: in vivo; settings: rat, male Sprague-Dawley rats, nominal 10 mg/kg in 10% DMSO/10% cremophor/80% SWFI, plasma, actual dose 7.6 mg/kg (Example 115), 8.4 mg/kg (Example 85)
Experimental: Pharmacokinetic studies of the compounds in Table 15 were performed to assess the pharmacokinetics following a single oral dose in male Sprague-Dawley rats. Two rats were given a single po dose of 5 mL/kg of a nominal 2 mg/mL (10 mg/kg) composition of test compound in 10% DMSO/10% cremophor/80% SWFI. Following dosing, blood samples were collected over a period of 24 hours. Sample times were 5, 15 and 30 minutes then 1, 2, 4, 6, 8 and 12 hours. Following collection, blood samples were centrifuged and the plasma fraction analysed for concentration of test compound by LCMS.

Human plasma kallikrein = Human plasma kallikrein (Homo sapiens (Human), UniProt P03952); assay: Determination of the IC50 for plasma kallikrein; assay type: biochemical; settings: read-out: IC50 (human PKal)
Experimental: Determination of the IC50 for Plasma Kallikrein
(§1) Human plasma kallikrein (Protogen) was incubated at 25° C. with the fluorogenic substrate H-DPro-Phe-Arg-AFC and various concentrations of the test compound. Residual enzyme activity (initial rate of reaction) was determined by measuring the change in […] at 410 nm and the IC50 value for the test compound was determined.

Human KLK1 = Human KLK1 (Homo sapiens (Human), UniProt P06870); assay: Determination of the IC50 for KLK1; assay type: biochemical; settings: human KLK1, 25° C., substrate H-DVal-Leu-Arg-AFC
Experimental: Determination of the IC50 for KLK1
as §1, with “KLK1 (Callbiochem)” for “plasma kallikrein (Protogen)”, “H-DVal-Leu-Arg-AFC” for “H-DPro-Phe-Arg-AFC”

Human FXIa = Human FXIa (Homo sapiens (Human), UniProt P03951); assay: Determination of the % inhibition for FXIa; assay type: biochemical; settings: 40 μM of the test compound, human FXIa, 25° C.; read-out: % Inhibition @ 40 μM (human FXIa)
Experimental: Determination of the % Inhibition for FXIa
Human FXIa (Enzyme Research Laboratories) was incubated at 25° C. with the fluorogenic substrate Z-Gly-Pro-Arg-AFC and 40 μM of the test compound. Residual enzyme activity (initial rate of reaction) was determined by measuring the change in […].

Sequence of Human plasma kallikrein (P03952 391-638): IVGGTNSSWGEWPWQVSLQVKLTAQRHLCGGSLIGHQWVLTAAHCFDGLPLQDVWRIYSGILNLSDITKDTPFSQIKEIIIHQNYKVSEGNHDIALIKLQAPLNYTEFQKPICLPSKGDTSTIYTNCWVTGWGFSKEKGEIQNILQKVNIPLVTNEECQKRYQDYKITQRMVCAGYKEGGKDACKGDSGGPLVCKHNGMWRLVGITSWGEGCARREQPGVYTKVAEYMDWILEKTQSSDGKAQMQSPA
Sequence of Human plasma kallikrein (P03952 20-390 partner): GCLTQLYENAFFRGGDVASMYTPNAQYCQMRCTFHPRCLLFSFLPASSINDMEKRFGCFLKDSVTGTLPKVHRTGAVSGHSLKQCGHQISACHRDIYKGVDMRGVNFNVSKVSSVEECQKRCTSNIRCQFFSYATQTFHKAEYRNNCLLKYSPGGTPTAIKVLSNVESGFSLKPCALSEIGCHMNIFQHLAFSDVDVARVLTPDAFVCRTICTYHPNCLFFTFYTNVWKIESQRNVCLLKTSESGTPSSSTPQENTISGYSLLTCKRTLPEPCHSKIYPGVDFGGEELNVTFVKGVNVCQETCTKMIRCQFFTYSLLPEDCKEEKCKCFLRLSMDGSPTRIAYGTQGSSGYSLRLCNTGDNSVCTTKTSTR
Sequence of Human KLK1 (P06870 25-262): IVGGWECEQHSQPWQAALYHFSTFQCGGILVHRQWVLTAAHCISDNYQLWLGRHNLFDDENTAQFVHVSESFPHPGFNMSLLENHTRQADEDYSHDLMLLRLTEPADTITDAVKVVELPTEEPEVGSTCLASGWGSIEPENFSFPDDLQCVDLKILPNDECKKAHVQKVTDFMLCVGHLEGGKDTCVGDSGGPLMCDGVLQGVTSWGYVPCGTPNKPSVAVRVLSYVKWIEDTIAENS
Sequence of Human FXIa (P03951 388-625 limits assumed): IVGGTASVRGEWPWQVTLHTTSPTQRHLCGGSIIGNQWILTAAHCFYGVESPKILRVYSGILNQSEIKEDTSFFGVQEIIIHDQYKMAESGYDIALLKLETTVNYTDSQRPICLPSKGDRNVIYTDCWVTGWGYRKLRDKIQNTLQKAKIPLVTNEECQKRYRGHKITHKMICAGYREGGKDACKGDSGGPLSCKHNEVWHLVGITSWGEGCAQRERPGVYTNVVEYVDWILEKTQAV
Sequence of Human FXIa (P03951 19-387 partner limits assumed): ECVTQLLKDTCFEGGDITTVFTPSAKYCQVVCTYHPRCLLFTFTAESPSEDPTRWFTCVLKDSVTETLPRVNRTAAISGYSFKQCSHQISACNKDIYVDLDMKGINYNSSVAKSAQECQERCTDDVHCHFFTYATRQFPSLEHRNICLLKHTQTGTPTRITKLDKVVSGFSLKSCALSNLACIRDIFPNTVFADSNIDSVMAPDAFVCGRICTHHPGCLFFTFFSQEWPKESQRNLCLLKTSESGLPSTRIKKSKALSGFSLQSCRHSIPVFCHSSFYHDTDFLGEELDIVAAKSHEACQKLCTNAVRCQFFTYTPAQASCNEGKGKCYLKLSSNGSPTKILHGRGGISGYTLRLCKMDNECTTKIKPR

Row | SMILES | Cmax [1] | Tmax [1] | pIC50 (Human plasma kallikrein) | pIC50 (Human KLK1) | inhibition at 40 µM (Human FXIa)
1 | Cc1cccn(Cc2ccc(Cn3cc(C(=O)NCCOc4cccc(Cl)c4)c(N)n3)cc2)c1=O [Example 85, 3-amino-N-[2-(3-chlorophenoxy)ethyl]-1-({4-[(3-methyl-2-oxopyridin-1-yl)methyl]phenyl}methyl)pyrazole-4-carboxamide] | 228 ng/mL | 45 min | 8.46 | < 4.40 | 1%
2 | Nc1nn(Cc2cccc(N3CCCC3)n2)cc1C(=O)NCCOc1cccc(Cl)c1 [Example 53, 3-amino-N-[2-(3-chlorophenoxy)ethyl]-1-{[6-(pyrrolidin-1-yl)pyridin-2-yl]methyl}pyrazole-4-carboxamide] | – | – | 5.33 | < 4.40 | 0%
3 | CNC(=O)c1ccc(Cn2cc(C(=O)NCCOc3cccc(Cl)c3)c(N)n2)cc1 [Example 61, 3-amino-N-[2-(3-chlorophenoxy)ethyl]-1-{[4-(methylcarbamoyl)phenyl]methyl}pyrazole-4-carboxamide] | – | – | 5.14 | < 4.40 | 0%
4 | COCc1nn(Cc2ccc(Cn3ccccc3=O)cc2)cc1C(=O)NCCOc1cc(F)cc(Cl)c1 [Example 10, N-[2-(3-chloro-5-fluorophenoxy)ethyl]-3-(methoxymethyl)-1-({4-[(2-oxopyridin-1-yl)methyl]phenyl}methyl)pyrazole-4-carboxamide] | – | – | 6.87 | < 5.00 | 0%
5 | CC(=O)N(C)Cc1ccc(Cn2cc(C(=O)NCCOc3cccc(Cl)c3)c(N)n2)cc1 [Example 82, 3-amino-N-[2-(3-chlorophenoxy)ethyl]-1-({4-[(N-methylacetamido)methyl]phenyl}methyl)pyrazole-4-carboxamide] | – | – | 6.15 | < 4.40 | 0%

Now from value to compound:

Row | Cmax [1] | Tmax [1] | pIC50 (Human plasma kallikrein) | pIC50 (Human KLK1) | inhibition at 40 µM (Human FXIa) | SMILES
6 | 538 ng/mL | 30 min | 8.25 | < 4.40 | – | C[C@@H](CNC(=O)c1cn(Cc2ccc(Cn3ccccc3=O)cc2)nc1N)Oc1cccc(Cl)c1 [Example 115, 3-Amino-N-[(2S)-2-(3-chlorophenoxy)propyl]-1-({4-[(2-oxopyridin-1-yl)methyl]phenyl}methyl)-pyrazole-4-carboxamide]
7 | – | – | 6.85 | < 4.40 | 0% | C[C@@H](COc1cccc(Cl)c1)NC(=O)c1cn(Cc2ccc(Cn3ccccc3=O)cc2)nc1N [Example 114, 3-amino-N-[(2S)-1-(3-chlorophenoxy)propan-2-yl]-1-({4-[(2-oxopyridin-1-yl)methyl]phenyl}methyl)pyrazole-4-carboxamide]
8 | – | – | 7.52 | < 4.40 | 32% | Nc1nn(Cc2ccc(Cn3ccccc3=O)cc2)cc1C(=O)NCCNc1cc(Cl)ccn1 [Example 47, 3-amino-N-{2-[(4-chloropyridin-2-yl)amino]ethyl}-1-({4-[(2-oxopyridin-1-yl)methyl]phenyl}methyl)pyrazole-4-carboxamide]
9 | – | – | 6.16 | < 4.40 | 4% | Nc1nn(Cc2ccc(Cn3ccccc3=O)cc2)cc1C(=O)N[C@@H]1CCN(c2cccc(Cl)c2)C1 [Example 106, 3-amino-N-[(3R)-1-(3-chlorophenyl)pyrrolidin-3-yl]-1-({4-[(2-oxopyridin-1-yl)methyl]phenyl}methyl)pyrazole-4-carboxamide]
10 | – | – | 7.22 | < 5.00 | 0% | Nc1nn(Cc2ccc(Cn3ccccc3=O)cc2)cc1C(=O)NCC(=O)Nc1cccc(Cl)c1 [Example 2]
